Here are results for 53 molecules from the Kinase Knowledgebase extract (Sharma et al. 2016).

Molecules are shown by their SMILES.

MAPK14 (human), sequence (Q16539 whole entry, looked up): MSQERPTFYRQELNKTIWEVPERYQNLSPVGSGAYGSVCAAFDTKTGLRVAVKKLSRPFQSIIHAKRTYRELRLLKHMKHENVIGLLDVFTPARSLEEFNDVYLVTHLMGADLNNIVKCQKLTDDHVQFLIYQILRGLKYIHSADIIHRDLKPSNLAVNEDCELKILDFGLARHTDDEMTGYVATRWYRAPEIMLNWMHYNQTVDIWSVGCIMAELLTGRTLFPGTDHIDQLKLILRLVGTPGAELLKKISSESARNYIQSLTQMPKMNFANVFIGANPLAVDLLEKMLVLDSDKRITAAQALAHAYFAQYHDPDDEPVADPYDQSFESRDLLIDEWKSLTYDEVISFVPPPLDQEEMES

The test addresses MAPK14 (human) (UniProt Q16539). In words: Inhibition of MAPK14 Kinase Activity.
On to `O=c1ccc2c(ccn2Cc2ccc(F)cc2F)n1-c1ccccc1`, for which the half-maximal inhibitory concentration (IC50) (usually the midpoint of a concentration-inhibition curve) was not above 2 µM.
In the case of `Cc1ccc(-n2c(=O)ccc3c2cc(C(N)=O)n3Cc2cccc(Cl)c2)cc1` it was not above 2 µM; in that of `CCOC(=O)c1cc2c(ccc(=O)n2-c2ccccc2)n1Cc1ccc(F)c(C)c1`, not above 2 µM.
The value for `CON(C)C(=O)c1cc2c(ccc(=O)n2-c2ccccc2)n1Cc1cccc(C)c1` was not above 2 µM.
In the case of `O=c1ccc2c(ccn2Cc2ccc(Cl)cc2)n1-c1ccccc1` it was not above 2 µM; in that of `CCOC(=O)c1cc2c(ccc(=O)n2-c2ccc3[nH]ccc3c2)n1Cc1cccc(Cl)c1`, not above 2 µM; in that of `CCOC(=O)c1cc2c(ccc(=O)n2-c2ccccc2)n1Cc1cccc(Cl)c1`, not above 2 µM.
As to `O=c1ccc2c(ccn2Cc2cc(Cl)ccc2Cl)n1-c1ccccc1`, the IC50 was not above 2 µM.
In the case of `N#Cc1ccc(Cn2ccc3c2ccc(=O)n3-c2ccccc2)cc1` it was not above 2 µM; in that of `NC(=O)c1cc2c(ccc(=O)n2-c2ccc3[nH]ccc3c2)n1Cc1cccc(Cl)c1`, not above 2 µM; in that of `COc1ccc(-n2c(=O)ccc3c2ccn3Cc2ccccc2)cc1`, not above 2 µM.
In the case of `O=c1ccc2c(ccn2CCc2ccccc2)n1-c1ccccc1` it was not above 2 µM; in that of `CNC(=O)c1cc2c(ccc(=O)n2-c2ccccc2)n1Cc1cccc(Cl)c1`, not above 2 µM; in that of `O=C(c1cc2c(ccc(=O)n2-c2ccccc2)n1Cc1cccc(Cl)c1)N1CCCC1`, not above 2 µM.
The molecule `O=c1ccc2c(ccn2Cc2ccncc2)n1-c1ccccc1` showed an IC50 not above 2 µM.
In the case of `CCOC(=O)c1cc2c(ccc(=O)n2-c2ccsc2)n1Cc1cccc(Cl)c1` it was not above 2 µM; in that of `CCOC(=O)c1cc2c(ccc(=O)n2-c2ccc(C)cc2)n1Cc1cccc(Cl)c1`, not above 2 µM; in that of `O=C(c1ccccc1)n1ccc2c1ccc(=O)n2-c1ccccc1`, not above 2 µM.
The value for `NC(=O)c1cc2c(ccc(=O)n2-c2ccccc2)n1Cc1ccc(F)c(Cl)c1` was not above 2 µM; that for `O=c1ccc2c(ccn2Cc2ccc(F)c(F)c2)n1-c1ccccc1` was not above 2 µM.
In the case of `CC(c1ccccc1)n1ccc2c1ccc(=O)n2-c1ccccc1` (stereo not drawn) it was not above 2 µM; in that of `CCOC(=O)c1cc2c(ccc(=O)n2-c2ccccc2[N+](=O)[O-])n1Cc1cccc(Cl)c1`, not above 2 µM; in that of `Cc1ccccc1Cn1ccc2c1ccc(=O)n2-c1ccccc1`, not above 2 µM.
`CON(C)C(=O)c1cc2c(ccc(=O)n2-c2ccccc2)n1Cc1ccc(F)c(Cl)c1` displayed an IC50 not above 2 µM.
The value for `O=c1ccc2c(ccn2Cc2c(Cl)cccc2Cl)n1-c1ccccc1` was not above 2 µM; that for `COc1cccc(Cn2ccc3c2ccc(=O)n3-c2ccccc2)c1` was not above 2 µM; that for `O=c1ccc2c(cc(S(=O)(=O)N3CCCC3)n2Cc2cccc(Cl)c2)n1-c1ccccc1` was not above 2 µM.
The value for `Cc1cccc(Cn2c(C(=O)N3CCC[C@H]3CO)cc3c2ccc(=O)n3-c2ccccc2)c1` was not above 2 µM.
`Cc1cccc(Cn2c(C(N)=O)cc3c2ccc(=O)n3-c2ccccc2)c1` displayed an IC50 not above 2 µM.
The value for `O=c1ccc2c(ccn2Cc2ccc(Cl)c(Cl)c2)n1-c1ccccc1` was not above 2 µM; that for `CCOC(=O)c1cc2c(ccc(=O)n2-c2ccccc2)n1Cc1ccccc1` was not above 2 µM.
The value for `NNC(=O)c1cc2c(ccc(=O)n2-c2ccccc2)n1Cc1cccc(Cl)c1` was not above 2 µM; that for `N#Cc1cccc(Cn2ccc3c2ccc(=O)n3-c2ccccc2)c1` was not above 2 µM; that for `Cc1cc(Cn2c(C(N)=O)cc3c2ccc(=O)n3-c2ccccc2)ccc1F` was not above 2 µM.
The value for `Cc1ccc(Cn2ccc3c2ccc(=O)n3-c2ccccc2)cc1` was not above 2 µM.
Regarding `O=c1ccc2c(ccn2Cc2nc3ccccc3s2)n1-c1ccccc1`, the IC50 was not above 2 µM.
With `CCOC(=O)c1cc2c(ccc(=O)n2-c2ccccc2)n1Cc1cccc(C)c1`, the IC50 was not above 2 µM.
The value for `CCOC(=O)c1cc2c(ccc(=O)n2-c2ccccc2)n1Cc1ccc(F)c(Cl)c1` was not above 2 µM; that for `NC(=O)c1cc2c(ccc(=O)n2-c2ccccc2)n1Cc1cccc(Cl)c1` was not above 2 µM; that for `O=c1ccc2c(ccn2Cc2cccc(Cl)c2)n1-c1ccsc1` was not above 2 µM.
In the case of `O=c1ccc2c(ccn2Cc2ccccc2)n1-c1ccccc1` it was not above 2 µM; in that of `Cc1ccc(-n2c(=O)ccc3c2cc(C(=O)NN)n3Cc2cccc(Cl)c2)cc1`, not above 2 µM.
`N#Cc1ccccc1Cn1c(C(N)=O)cc2c1ccc(=O)n2-c1ccccc1` had a concentration for half-maximal inhibition (IC50) not above 2 µM.
The value for `O=C(c1cn(Cc2ccccc2)c2ccc(=O)n(-c3ccccc3)c12)C(F)(F)F` was not above 2 µM; that for `N#Cc1cc2c(ccc(=O)n2-c2ccccc2)n1Cc1cccc(Cl)c1` was not above 2 µM.
Take `O=c1ccc2c(ccn2Cc2ccc(Cl)s2)n1-c1ccccc1`: the IC50 was not above 2 µM.
The value for `Cc1cccc(Cn2ccc3c2ccc(=O)n3-c2ccccc2)c1` was not above 2 µM; that for `O=c1ccc2c(ccn2Cc2cccc(Cl)c2)n1-c1ccccc1` was not above 2 µM; that for `CON(C)C(=O)c1cc2c(ccc(=O)n2-c2ccccc2)n1Cc1cccc(Cl)c1` was not above 2 µM.
The value for `CN(C)C(=O)c1cc2c(ccc(=O)n2-c2ccccc2)n1Cc1cccc(Cl)c1` was not above 2 µM.
The value for `O=c1ccc2c(ccn2Cc2ccc(F)c(Cl)c2)n1-c1ccccc1` was not above 2 µM; that for `O=c1ccc2c(ccn2Cc2cccnc2)n1-c1ccccc1` was not above 2 µM.
Take `O=c1ccc2c(ccn2Cc2ccc(F)cc2)n1-c1ccccc1`: the 50% inhibitory concentration (IC50) was not above 2 µM.
